Assay results reported in US20240108006A1, “PESTICIDALLY ACTIVE HETEROAROMATIC COMPOUNDS” (SYNGENTA CROP PROTECTION AG, priority 2021, published 2024).
Read-outs that look alike come from different tables or passages of the source.

Legend:
Assay type in all cases: in vivo
Myzus persicae = assay: Example B7: Myzus persicae (green peach aphid), intrinsic activity, sucrose solution 24-well; settings: 120 h, read-out: control (mortality)
Text: Example B7: Myzus persicae (Green Peach Aphid). Intrinsic Activity
Test compounds prepared from 10,000 ppm DMSO stock solutions were applied by pipette into 24-well microtiter plates and mixed with sucrose solution. The plates were closed with a stretched Parafilm. A plastic stencil with 24 holes was placed onto the plate and infested pea seedlings were placed directly on the Parafilm. The infested plate was closed with a gel blotting paper and another plastic stencil and then turned upside down. The samples were assessed for mortality 5 days after infestation.
The following compounds gave an effect of at least 80% control at an application rate of 12.5 ppm: […]

Chilo suppressalis = assay: Example B1: Chilo suppressalis (striped rice stemborer), artificial diet, L2 larvae; settings: 144 h, application rate of 200 ppm, 6 days after infestation, read-out: control in at least one of the three categories (mortality, anti-feedant effect, or growth inhibition)
Outline: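 L2 larvae (6-8 per well) were placed on dried artificial diet that had been dosed with aqueous dilutions of 10,000 ppm DMSO stock solutions. After 6 days, control was credited if mortality, antifeedant effect or growth inhibition was higher than in untreated samples.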

Plutella xylostella = assay: Example B8: Plutella xylostella (diamond back moth), artificial diet 24-well, eggs; settings: 192 h, application rate of 200 ppm, 8 days after infestation, read-out: effect in at least one of the two categories (mortality or growth inhibition)
Outline: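 Plutella eggs placed onto dried, compound-treated artificial diet, the aqueous test solutions diluted from 10,000 ppm DMSO stocks. Eight days post-infestation, larvae rated for mortality and growth inhibition relative to untreated controls.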

Spodoptera littoralis = assay: Example B9: Spodoptera littoralis (Egyptian cotton leaf worm), cotton leaf discs, L1 larvae; settings: foliar, 72 h, application rate of 200 ppm, 3 days after infestation, read-out: control in at least one of the three categories (mortality, anti-feedant effect, or growth inhibition)
Outline: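 Five L1 larvae placed on sprayed, dried cotton leaf discs; spray solutions aqueous, from 10,000 ppm DMSO stocks. Control given when mortality, anti-feedant effect or growth inhibition exceeds untreated samples at 3 days.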

[1] = application rate of 12.5 ppm, 5 days after infestation

Structure (SMILES) | mortality at 12.5 ppm (Myzus persicae; [1]) | percent control (mortality, anti-feedant effect or growth inhibition) at 200 ppm (Chilo suppressalis) | percent effect (mortality or growth inhibition) at 200 ppm (Plutella xylostella) | percent control (mortality, anti-feedant effect or growth inhibition) at 200 ppm (Spodoptera littoralis) | mortality at 12.5 ppm (Myzus persicae)
COc1cc(NC(=O)N[C@@H](C)c2ncnn2-c2ncccn2)c(C2CC2)cc1Cl [Example P355, 1-(4-chloro-2-cyclopropyl-5-methoxy-phenyl)-3-[(1S)-1-(2-pyrimidin-2-yl-1,2,4-triazol-3-yl)ethyl]urea] | ≥ 80% | ≥ 80% | – | – | –
COc1cc(Cl)c(NC(=O)N[C@@H](C)c2ncnn2-c2ncccn2)cc1OC [Example P304, 1-(2-chloro-4,5-dimethoxy-phenyl)-3-[(1S)-1-(2-pyrimidin-2-yl-1,2,4-triazol-3-yl)ethyl]urea] | ≥ 80% | – | ≥ 80% | – | –
C[C@H](NC(=O)Nc1ccc(Br)cc1Br)c1ncnn1-c1ncccn1 [Example P130, 1-(2,4-dibromophenyl)-3-[(1S)-1-(2-pyrimidin-2-yl-1,2,4-triazol-3-yl)ethyl]urea] | ≥ 80% | ≥ 80% | ≥ 80% | ≥ 80% | –
C[C@H](NC(=O)Nc1cc(F)c(C(F)(F)F)cc1F)c1ncnn1-c1ncccn1 [Example P332, 1-[2,5-difluoro-4-(trifluoromethyl)phenyl]-3-[(1S)-1-(2-pyrimidin-2-yl-1,2,4-triazol-3-yl)ethyl]urea] | ≥ 80% | ≥ 80% | – | ≥ 80% | –
COC(=O)c1cc(NC(=O)N[C@@H](C)c2ncnn2-c2ncccn2)c(C)cc1C [Example P315, methyl 2,4-dimethyl-5-[[(1S)-1-(2-pyrimidin-2-yl-1,2,4-triazol-3-yl)ethyl]carbamoylamino]benzoate] | ≥ 80% | – | – | – | –
C[C@H](NC(=O)Nc1cc2c(cc1Br)OC(F)(F)O2)c1ncnn1-c1ncccn1 [Example P79, 1-(6-bromo-2,2-difluoro-1,3-benzodioxol-5-yl)-3-[(1S)-1-(2-pyrimidin-2-yl-1,2,4-triazol-3-yl)ethyl]urea] | ≥ 80% | ≥ 80% | ≥ 80% | ≥ 80% | –
CSc1cc(Cl)c(C(F)(F)F)cc1NC(=O)N[C@@H](C)c1ncnn1-c1ncccn1 [Example P360, 1-[4-chloro-2-methylsulfanyl-5-(trifluoromethyl)phenyl]-3-[(1S)-1-(2-pyrimidin-2-yl-1,2,4-triazol-3-yl)ethyl]urea] | ≥ 80% | ≥ 80% | – | ≥ 80% | –
C[C@H](NC(=O)Nc1cc(Oc2ccc(C#N)cn2)c(Cl)cc1Cl)c1ncnn1-c1ncccn1 [Example P274, 1-[2,4-dichloro-5-[(5-cyano-2-pyridyl)oxy]phenyl]-3-[(1S)-1-(2-pyrimidin-2-yl-1,2,4-triazol-3-yl)ethyl]urea] | ≥ 80% | ≥ 80% | ≥ 80% | – | –
C[C@H](NC(=O)Nc1cc(F)c(Cl)cc1Cl)c1ncnn1-c1ncccn1 [Example P380, 1-(2,4-dichloro-5-fluoro-phenyl)-3-[(1S)-1-(2-pyrimidin-2-yl-1,2,4-triazol-3-yl)ethyl]urea] | ≥ 80% | ≥ 80% | ≥ 80% | ≥ 80% | –
C[C@H](NC(=O)Nc1ccc(C#N)cc1Br)c1ncnn1-c1ncccn1 [Example P30, 1-(2-bromo-4-cyano-phenyl)-3-[(1S)-1-(2-pyrimidin-2-yl-1,2,4-triazol-3-yl)ethyl]urea] | ≥ 80% | ≥ 80% | – | – | –
COC(=O)c1cc(NC(=O)N[C@@H](C)c2ncnn2-c2ncccn2)c(C(F)(F)F)cc1Cl [Example P210, methyl 2-chloro-5-[[(1S)-1-(2-pyrimidin-2-yl-1,2,4-triazol-3-yl)ethyl]carbamoylamino]-4-(trifluoromethyl)benzoate] | ≥ 80% | ≥ 80% | ≥ 80% | – | –
C[C@H](NC(=O)Nc1ccc(C(F)(F)F)cc1)c1ncnn1-c1ncccn1 [Example P122, 1-[(1S)-1-(2-pyrimidin-2-yl-1,2,4-triazol-3-yl)ethyl]-3-[4-(trifluoromethyl)phenyl]urea] | ≥ 80% | – | – | – | –
C[C@H](NC(=O)Nc1cc(Cl)c(C#N)cc1Cl)c1ncnn1-c1ncccn1 [Example P179, 1-(2,5-dichloro-4-cyano-phenyl)-3-[(1S)-1-(2-pyrimidin-2-yl-1,2,4-triazol-3-yl)ethyl]urea] | – | – | – | – | ≥ 80%
CC(C)Oc1cc(NC(=O)N[C@@H](C)c2ncnn2-c2ncccn2)c(F)cc1Br [Example P221, 1-(4-bromo-2-fluoro-5-isopropoxy-phenyl)-3-[(1S)-1-(2-pyrimidin-2-yl-1,2,4-triazol-3-yl)ethyl]urea] | ≥ 80% | ≥ 80% | ≥ 80% | – | –
C[C@H](NC(=O)Nc1ccc(F)cc1S(C)(=O)=O)c1ncnn1-c1ncccn1 [Example P99, 1-(4-fluoro-2-methylsulfonyl-phenyl)-3-[(1S)-1-(2-pyrimidin-2-yl-1,2,4-triazol-3-yl)ethyl]urea] | ≥ 80% | – | – | – | –
C[C@H](NC(=O)Nc1cc(Oc2ncccn2)c(Cl)cc1Cl)c1ncnn1-c1ncccn1 [Example P138, 1-(2,4-dichloro-5-pyrimidin-2-yloxy-phenyl)-3-[(1S)-1-(2-pyrimidin-2-yl-1,2,4-triazol-3-yl)ethyl]urea] | ≥ 80% | ≥ 80% | ≥ 80% | – | –
C[C@H](NC(=O)Nc1cc(C(F)(F)F)c(Cl)cc1Cl)c1ncnn1-c1ccc(C#N)cn1 [Example P173, 1-[(1S)-1-[2-(5-cyano-2-pyridyl)-1,2,4-triazol-3-yl]ethyl]-3-[2,4-dichloro-5-(trifluoromethyl)phenyl]urea] | – | ≥ 80% | ≥ 80% | ≥ 80% | –
CCCOc1cc(NC(=O)N[C@@H](C)c2ncnn2-c2ncccn2)c(F)cc1Br [Example P231, 1-(4-bromo-2-fluoro-5-propoxy-phenyl)-3-[(1S)-1-(2-pyrimidin-2-yl-1,2,4-triazol-3-yl)ethyl]urea] | ≥ 80% | – | ≥ 80% | – | –
C[C@H](NC(=O)Nc1cc(Br)c(Cl)cc1F)c1ncnn1-c1ncccn1 [Example P300, 1-(5-bromo-4-chloro-2-fluoro-phenyl)-3-[(1S)-1-(2-pyrimidin-2-yl-1,2,4-triazol-3-yl)ethyl]urea] | – | ≥ 80% | ≥ 80% | ≥ 80% | –
CC(NC(=O)Nc1ccc(C(F)(F)F)cc1I)c1nccnc1-n1nccn1 (stereo not drawn) [Example P263, 1-[2-iodo-4-(trifluoromethyl)phenyl]-3-[1-[3-(triazol-2-yl)pyrazin-2-yl]ethyl]urea] | – | ≥ 80% | ≥ 80% | ≥ 80% | –
